Tests used:
Format in all cases: ADME, organism-based
[1] = Ratio of unbound fraction in CD1 mouse brain to plasma at 25 mg/kg, po after 6 hrs by LC-MS/MS analysis; conditions: read-out: K(p,uu,brain)
[2] = Ratio of unbound fraction in CD1 mouse brain to plasma at 50 mg/kg, po after 6 hrs by LC-MS/MS analysis; conditions: read-out: K(p,uu,brain)
[3] = AUC in CD1 mouse at 25 mg/kg, po; conditions: in vivo
[4] = test system: Brain; test: Unbound fraction in CD1 mouse brain at 25 mg/kg, po administered as single dose measured at 1 hr post dose by LC-MS/MS analysis; conditions: in vivo
[5] = test system: Brain; test: Unbound fraction in CD1 mouse brain at 25 mg/kg, po administered as single dose measured at 6 hrs post dose by LC-MS/MS analysis; conditions: in vivo

Q: For `COC(C)(C)c1cc2nc(-c3cnc(N)nc3)nc(N3CCOCC3)c2s1`, which Kp uu at 6 h [1] is on record?
A: 0.4

Q: For `COC1(c2sc3c(N4CCOCC4)nc(-c4cnc(N)nc4)nc3c2C)COC1`, which Kp uu at 6 h [2] is on record?
A: 0.4

Q: Which AUC [3] does the source give for `CC1(C)OCCn2c1nc1c(N3CCOCC3)nc(-c3cnc(N)nc3)nc12` [PAXALISIB] here?
A: 47 µM·h

Q: What about the “Drug uptake(free)” value [4] of the same molecule?
A: 0.32 µM

Q: What about the “Drug uptake(free)” value [5] of the same molecule?
A: 0.16 µM

— ChEMBL document CHEMBL3813614 (ACS Med Chem Lett, 2016)
